Measured values reported in patent US20170290878A1, “METHODS OF TREATING CANCER WITH TUBULYSIN CONJUGATES” (Endocyte, Inc., priority 2014, published 2017).
Structures can show the parent of a compound that is named as a salt.

How the values were obtained:
[1] = tested on: KB-PR10 tumors; assay: Antitumor activity on paclitaxel resistant KB-PR10 tumors in nu/nu mice; type: in vivo; conditions: three times a week for two weeks
Protocol: Four to six week-old female nu/nu mice (Harlan Sprague Dawley, Inc., Indianapolis, Ind.) were maintained on a standard 12 h light-dark cycle and fed ad libitum with folate-deficient chow (Harlan diet #TD00434, Harlan Teklad, Madison, Wis.) for the duration of the experiment. FR-positive paclitaxel resistant KB-PR10 cells were grown continuously as a monolayer, using folate-free RPMI medium (FFRPMI) containing 5% heat-inactivated fetal calf serum (HIFCS) at 37° C. in a 5% CO2/95% air-humidified atmosphere with no antibiotics. KB-PR10 cells (1×10^6 per nu/nu mouse) in 100 μL were injected in the subcutis of the dorsal medial area. […] Mice were treated with 20 mg/kg Paclitaxel, 2 μmol/kg EC145 (See WO2004/069159 for a description of EC145) or 1 μmol/kg Compound I on a three times a week for 2 weeks schedule when the tumors were approximately 100-145 mm^3, 101-129 mm^3 and 100-140 mm^3 in volume, respectively. The mice in the control groups received no treatment. […] All in vivo studies were performed in accordance with the American Accreditation Association of Laboratory Animal Care guidelines.

[2] = tested on: LU2505 tumors; assay: Antitumor activity in Huprime NSCLC PDX tumor model LU2505; type: in vivo, mice
Protocol: (§1) These studies were performed at Crown Bioscience (Beijing) Inc., Ground Floor, Light Muller Building, Changping Sector of Zhongguancun Scientific Park, No. 21 Huoju Road, Changping District, Beijing, P.R. China.

[3] = tested on: LU1147 tumors; assay: Antitumor activity in Huprime NSCLC PDX tumor model LU1147; type: in vivo, mice
Protocol: as §1

[4] = tested on: large KB tumors; assay: Antitumor activity in large KB tumor model; type: in vivo, mice; conditions: EC1456 2 μmol/kg, three times a week for two weeks
Protocol: Female Balb/c nu/nu mice were fed ad libitum with folate-deficient chow (Harlan diet #TD01013) for the duration of the experiment. KB tumor cells were inoculated subcutaneously at the right flank of each mouse.
Growth of each s.c. tumor was followed by measuring the tumor two times per week. Tumors were measured in two perpendicular directions using Vernier calipers, and their volumes were calculated as 0.5×L×W^2, where L=measurement of longest axis in mm and W=measurement of axis perpendicular to L in mm.

[5] = tested on: ST040 Endometrial tumors; assay: Antitumor activity in Endometrial ST040 model; type: in vivo, mice
Protocol: (§2) These materials were obtained from and studies were performed at South Texas Accelerated Research Therapeutics, 4383 Medical Drive, San Antonio, Tex. 78229

[6] = tested on: ST502 TNBC tumors; assay: Antitumor activity in Triple Negative Breast Cancer (TNBC) ST502 model; type: in vivo, mice
Protocol: as §2

[7] = tested on: ST738 TNBC tumors; assay: Antitumor activity in Triple Negative Breast Cancer (TNBC) ST738 model; type: in vivo, mice
Protocol: as §2

[8] = tested on: ST024 Ovarian tumors; assay: Antitumor activity in Ovarian ST024 model; type: in vivo, mice
Protocol: as §2

[9] = Phase 1 dose-escalation study: safety, DLT; type: in vivo, human
Protocol: Compound I was administered via IV bolus injection.

[10] = EC1456 2 μmol/kg, two times a week for two weeks
[11] = EC1456 4 μmol/kg, once a week for two weeks
[12] = EC1456 1.5 μmol/kg, two times a week for two weeks (BIW×2)
[13] = EC1456 3 μmol/kg, once a week for two weeks (SIW×2)
[14] = EC1456 2 μmol/kg, two times a week for two weeks (BIW×2)
[15] = EC1456 4 μmol/kg, once a week for two weeks (SIW×2)
[16] = DL1 and DL2 (0.5 and 1.0 mg/m^2, BIW), 6 patients
[17] = Eribulin mesylate 1 mg/kg, once a week for two weeks (SIW×2)
[18] = Paclitaxel 15 mg/kg, once a week for two weeks (SIW×2)

## CCCC(=O)OCN(C(=O)[C@@H](NC(=O)[C@H]1CCCCN1C)C(C)CC)[C@H](C[C@@H](OC(C)=O)c1nc(C(=O)N[C@@H](Cc2ccc(O)cc2)C[C@H](C)C(=O)NNC(=O)OCCSSC[C@@H](NC(=O)[C@H](CCC(=O)NC[C@H](O)[C@@H](O)[C@H](O)[C@H](O)CO)NC(=O)[C@@H](CCC(=O)O)NC(=O)[C@H](CCC(=O)NC[C@H](O)[C@@H](O)[C@H](O)[C@H](O)CO)NC(=O)[C@@H](CCC(=O)O)NC(=O)[C@H](CCC(=O)NC[C@H](O)[C@@H](O)[C@H](O)[C@H](O)CO)NC(=O)CC[C@@H](NC(=O)c2ccc(NCc3cnc4nc(N)[nH]c(=O)c4n3)cc2)C(=O)O)C(=O)O)cs1)C(C)C (some centres unmarked) [EC1456]
[1]; 2 μmol/kg
  anti-tumor activity: no-anti-tumor activity
[1]; EC1456 1 μmol/kg
  PRs: 60%
  antitumor activity: good antitumor activity
  cures: 40%
[2]; [10]
  cures: 7 of 7
[2]; [11]
  cures: 7 of 7
[3]; [10]
  animals exhibiting stable disease: 5 animals
[3]; [11]
  animals exhibiting stable disease: 6 animals
[4]
  anti-tumor activity: excellent anti-tumor activity
[4]; 1000 mm^3 tumor group
  cures: 100%
[4]; 1400 mm^3 tumor group
  cures: 100%
[5]; [12]
  animal exhibiting PR: 1 animal
  anti-tumor activity: slightly better anti-tumor activity
[5]; [13]
  anti-tumor activity: slightly better anti-tumor activity
  partial response (PR): 1
[6]; [14]
  anti-tumor activity: no anti-tumor activity
[6]; [15]
  anti-tumor activity: no anti-tumor activity
[7]; [14]
  animals exhibiting PR's: 3 animals
  anti-tumor activity: some anti-tumor activity
  cure: 2
[7]; [15]
  animals exhibiting PR's: 5 animals
  anti-tumor activity: some anti-tumor activity
[8]; [14]
  animals exhibiting cures: 100%
  anti-tumor activity: curative
[8]; [15]
  animals exhibiting cures: 100%
  anti-tumor activity: curative
  cure: 5
  partial response (PR): 2
[9]; DL1 (0.5 mg/m^2, BIW)
  Grade 4 or treatment-related Grade 3 TEAEs: No Grade 4 or treatment-related Grade 3 TEAEs were observed
  severity of TEAEs (tinnitus, constipation, asthenia, ataxia, dizziness, orthostatic hypotension): mild and self-limited
[9]; DL1 (0.5 mg/m^2, BIW), Grade 3 vomiting in cycle 6, attributed to a viral syndrome
  SAE: one
[9]; [16]
  deaths on treatment or within 30 days of study discontinuation, treatment related SAEs, DLTs: No deaths occurred on treatment or within 30 days of study discontinuation, treatment related serious adverse events (SAEs) or DLTs
  dose delays, omissions, or reductions due to toxicity: no dose delays, omissions, or reductions due to toxicity
[9]; DL2 (1.0 mg/m^2, BIW)
  SAEs: no SAEs
  severity of TEAEs (abdominal pain, diarrhea, vomiting, hypoglycemia, pain): mild and self-limited
  ≧Grade 3 TEAEs regardless of relatedness: no ≧Grade 3 TEAEs observed
[9]; either dose level (DL1, DL2)
  cumulative or late-emerging treatment-related AEs: no evidence of cumulative or late-emerging treatment-related AEs

## C=C1C[C@@H]2CC[C@@]34C[C@H]5O[C@H]6[C@@H](O3)[C@H]3O[C@H](CC[C@@H]3O[C@H]6[C@H]5O4)CC(=O)C[C@@H]3[C@@H](OC)[C@@H](C[C@H](O)CN)O[C@H]3C[C@H]3O[C@@H](CC[C@@H]1O2)C[C@@H](C)C3=C [Eribulin mesylate, reference compound]
[6]; [17]
  animal exhibiting PR: 1 animal
  anti-tumor activity: minimal anti-tumor activity
[7]; [17]
  PR's: 2
  anti-tumor activity: some anti-tumor activity

## CC(=O)O[C@@]12CO[C@@H]1C[C@H](O)[C@@]1(C)C(=O)[C@H](O)C3=C(C)[C@@H](OC(=O)[C@H](O)[C@@H](NC(=O)OC(C)(C)C)c4ccccc4)C[C@@](O)([C@@H](OC(=O)c4ccccc4)[C@H]21)C3(C)C [Docetaxel]
[2]; Docetaxel 15 mg/kg, one dose
  CR's: 2
  PR's: 2
  anti-tumor activity: some anti-tumor activity
  cures: 2
[3]; Docetaxel 15 mg/kg, one dose
  animals exhibiting stable disease: 2 animals
  anti-tumor activity: minimal anti-tumor activity

## CC(=O)O[C@H]1C(=O)[C@@]2(C)[C@H]([C@H](OC(=O)c3ccccc3)[C@]3(O)C[C@H](OC(=O)[C@H](O)[C@@H](NC(=O)c4ccccc4)c4ccccc4)C(C)=C1C3(C)C)[C@]1(OC(C)=O)CO[C@@H]1C[C@@H]2O [Paclitaxel, reference compound]
[1]; paclitaxel 20 mg/kg
  anti-tumor activity: little to no anti-tumor activity
[5]; [18]
  anti-tumor activity: minimal anti-tumor activity
[8]; [18]
  anti-tumor activity: no anti-tumor activity
